Measurements published in US20260256868A1, “COMBINATION HERBAL MEDICINES FOR THE TREATMENT OF INFLAMMATORY BOWEL DISORDERS” (EVINATURE LTD., priority 2022, published 2026).

Test system: cytochrome P450 1A1 (CYP1A1)
Assay: CYP1A1 expression in colonic mucosal tissue of UC patients by RT-PCR (Example 8)
Assay type: in vivo, human
Settings: mucosal healing (Mayo sub-score 0/1) after treatment
Text: AhR is a ligand-activated transcription factor that ultimately acts in the nucleus in promoting transcription of various genes, including among others cytochrome P450 1A1 (CYP1A1) which is one of the most important xenobiotic-metabolizing enzymes and an important regulator of immune response in the intestine. Therefore, the inventors studied the expression of CYP1A1 in samples of colonic mucosal tissue obtained from UC patients, using RT-PCR.
Samples of colonic tissue were obtained during lower endoscopy from UC patients treated with CurQD and patients treated by other medications or placebo. Tissue specimens were immersed in liquid nitrogen. Biopsy samples were lysed and homogenized in TRI-Reagent and extracted according to the manufacturer's instructions (Life technologies, USA). Reverse transcription was performed on lug total RNA using the High Capacity RNA to cDNA kit according to the manufacturer's instructions (Applied Biosystems Foster City, CA USA) and Hs01054796_g1 assay for CYP1A1 and Hs99999905_m1 assay for GAPDH (housekeeping gene).

median CYP1A1 expression in patients who achieved mucosal healing: 4.6
Compound: Nc1ccc(O)c(C(=O)O)c1 [Batch 5ASA, 5-aminosalicylic acid]
